Structures are written as SMILES.

We go through 21 compounds from US8957078B2, “Compounds useful as inhibitors of ATR kinase” (Vertex Pharmaceuticals Incorporated, priority 2013, dated 2015).

In assay [1] the target is T1, ATR kinase (full-length ATR) (Homo sapiens, UniProt Q13535).
T1 construct: in the presence of 5 nM full-length ATR
Briefly: ATR Inhibition Assay (radioactive-phosphate incorporation). Type of assay: biochemical. The following applies: Ki(app); 5 nM full-length ATR, 10 μM ATP, 800 μM target peptide, 25° C. As to the method: Compounds were screened for their ability to inhibit ATR kinase using a radioactive-phosphate incorporation assay. Assays were carried out in a mixture of 50 mM Tris/HCl (pH 7.5), 10 mM MgCl2 and 1 mM DTT. Final substrate concentrations were 10 μM [γ-33P]ATP (3 mCi 33P ATP/mmol ATP, Perkin Elmer) and 800 μM target peptide (ASELPASQPQPFSAKKK (SEQ. ID NO: 1)).
Assays were carried out at 25° C. in the presence of 5 nM full-length ATR. An assay stock buffer solution was prepared containing all of the reagents listed above, with the exception of ATP and the test compound of interest. 13.5 μL of the stock solution was placed in a 96 well plate followed by addition of 2 μL of DMSO stock containing serial dilutions of the test compound (typically starting from a final concentration of 15 μM with 3-fold serial dilutions) in duplicate (final DMSO concentration 7%). The plate was pre-incubated for 10 minutes at 25° C. and the reaction initiated by addition of 15 μL [γ-33P]ATP (final concentration 10 μM).
The reaction was stopped after […] by the addition of 30 μL 0.1M phosphoric acid containing 2 mM ATP. A multiscreen phosphocellulose filter 96-well plate (Millipore, Cat no. MAPHN0B50) was pretreated with 100 μL 0.2M phosphoric acid prior to the addition of 45 μL of the stopped assay mixture. The plate was washed with 5×200 μL 0.2M phosphoric acid. After drying, 100 μL Optiphase ‘SuperMix’ liquid scintillation cocktail (Perkin Elmer) was added to the well prior to scintillation counting (1450 Microbeta Liquid Scintillation Counter, Wallac).
After removing mean background values for all of the data points, Ki(app) data were calculated from non-linear regression analysis of the initial rate data using the Prism software package (GraphPad Prism version 3.0cx for Macintosh, GraphPad Software, San Diego Calif., USA).

Assay [2] deals with HCT116 colorectal cancer cells. Description: Cisplatin Sensitization Assay (96 h cell viability MTS). It counts as cell-based. The following applies: concentration of compound required to reduce the IC50 of Cisplatin alone by at least 3-fold; HCT116, 96 h MTS. On the procedure:
Compounds can be screened for their ability to sensitize HCT116 colorectal cancer cells to Cisplatin using a 96 h cell viability (MTS) assay. […] Compounds and Cisplatin are then both added simultaneously to the cell media in 2-fold serial dilutions from a top final concentration of 10 μM as a full matrix of concentrations in a final cell volume of 200 μl, and the cells are then incubated at 37° C. in 5% CO2. After 96 h, 40 μl of MTS reagent (Promega G358a) is added to each well and the cells are incubated for 1 h at 37° C. in 5% CO2. Finally, absorbance is measured at 490 nm using a SpectraMax Plus 384 reader (Molecular Devices) and the concentration of compound required to reduce the IC50 of Cisplatin alone by at least 3-fold (to 1 decimal place) can be reported.

T1 sequence (Q13535 whole entry): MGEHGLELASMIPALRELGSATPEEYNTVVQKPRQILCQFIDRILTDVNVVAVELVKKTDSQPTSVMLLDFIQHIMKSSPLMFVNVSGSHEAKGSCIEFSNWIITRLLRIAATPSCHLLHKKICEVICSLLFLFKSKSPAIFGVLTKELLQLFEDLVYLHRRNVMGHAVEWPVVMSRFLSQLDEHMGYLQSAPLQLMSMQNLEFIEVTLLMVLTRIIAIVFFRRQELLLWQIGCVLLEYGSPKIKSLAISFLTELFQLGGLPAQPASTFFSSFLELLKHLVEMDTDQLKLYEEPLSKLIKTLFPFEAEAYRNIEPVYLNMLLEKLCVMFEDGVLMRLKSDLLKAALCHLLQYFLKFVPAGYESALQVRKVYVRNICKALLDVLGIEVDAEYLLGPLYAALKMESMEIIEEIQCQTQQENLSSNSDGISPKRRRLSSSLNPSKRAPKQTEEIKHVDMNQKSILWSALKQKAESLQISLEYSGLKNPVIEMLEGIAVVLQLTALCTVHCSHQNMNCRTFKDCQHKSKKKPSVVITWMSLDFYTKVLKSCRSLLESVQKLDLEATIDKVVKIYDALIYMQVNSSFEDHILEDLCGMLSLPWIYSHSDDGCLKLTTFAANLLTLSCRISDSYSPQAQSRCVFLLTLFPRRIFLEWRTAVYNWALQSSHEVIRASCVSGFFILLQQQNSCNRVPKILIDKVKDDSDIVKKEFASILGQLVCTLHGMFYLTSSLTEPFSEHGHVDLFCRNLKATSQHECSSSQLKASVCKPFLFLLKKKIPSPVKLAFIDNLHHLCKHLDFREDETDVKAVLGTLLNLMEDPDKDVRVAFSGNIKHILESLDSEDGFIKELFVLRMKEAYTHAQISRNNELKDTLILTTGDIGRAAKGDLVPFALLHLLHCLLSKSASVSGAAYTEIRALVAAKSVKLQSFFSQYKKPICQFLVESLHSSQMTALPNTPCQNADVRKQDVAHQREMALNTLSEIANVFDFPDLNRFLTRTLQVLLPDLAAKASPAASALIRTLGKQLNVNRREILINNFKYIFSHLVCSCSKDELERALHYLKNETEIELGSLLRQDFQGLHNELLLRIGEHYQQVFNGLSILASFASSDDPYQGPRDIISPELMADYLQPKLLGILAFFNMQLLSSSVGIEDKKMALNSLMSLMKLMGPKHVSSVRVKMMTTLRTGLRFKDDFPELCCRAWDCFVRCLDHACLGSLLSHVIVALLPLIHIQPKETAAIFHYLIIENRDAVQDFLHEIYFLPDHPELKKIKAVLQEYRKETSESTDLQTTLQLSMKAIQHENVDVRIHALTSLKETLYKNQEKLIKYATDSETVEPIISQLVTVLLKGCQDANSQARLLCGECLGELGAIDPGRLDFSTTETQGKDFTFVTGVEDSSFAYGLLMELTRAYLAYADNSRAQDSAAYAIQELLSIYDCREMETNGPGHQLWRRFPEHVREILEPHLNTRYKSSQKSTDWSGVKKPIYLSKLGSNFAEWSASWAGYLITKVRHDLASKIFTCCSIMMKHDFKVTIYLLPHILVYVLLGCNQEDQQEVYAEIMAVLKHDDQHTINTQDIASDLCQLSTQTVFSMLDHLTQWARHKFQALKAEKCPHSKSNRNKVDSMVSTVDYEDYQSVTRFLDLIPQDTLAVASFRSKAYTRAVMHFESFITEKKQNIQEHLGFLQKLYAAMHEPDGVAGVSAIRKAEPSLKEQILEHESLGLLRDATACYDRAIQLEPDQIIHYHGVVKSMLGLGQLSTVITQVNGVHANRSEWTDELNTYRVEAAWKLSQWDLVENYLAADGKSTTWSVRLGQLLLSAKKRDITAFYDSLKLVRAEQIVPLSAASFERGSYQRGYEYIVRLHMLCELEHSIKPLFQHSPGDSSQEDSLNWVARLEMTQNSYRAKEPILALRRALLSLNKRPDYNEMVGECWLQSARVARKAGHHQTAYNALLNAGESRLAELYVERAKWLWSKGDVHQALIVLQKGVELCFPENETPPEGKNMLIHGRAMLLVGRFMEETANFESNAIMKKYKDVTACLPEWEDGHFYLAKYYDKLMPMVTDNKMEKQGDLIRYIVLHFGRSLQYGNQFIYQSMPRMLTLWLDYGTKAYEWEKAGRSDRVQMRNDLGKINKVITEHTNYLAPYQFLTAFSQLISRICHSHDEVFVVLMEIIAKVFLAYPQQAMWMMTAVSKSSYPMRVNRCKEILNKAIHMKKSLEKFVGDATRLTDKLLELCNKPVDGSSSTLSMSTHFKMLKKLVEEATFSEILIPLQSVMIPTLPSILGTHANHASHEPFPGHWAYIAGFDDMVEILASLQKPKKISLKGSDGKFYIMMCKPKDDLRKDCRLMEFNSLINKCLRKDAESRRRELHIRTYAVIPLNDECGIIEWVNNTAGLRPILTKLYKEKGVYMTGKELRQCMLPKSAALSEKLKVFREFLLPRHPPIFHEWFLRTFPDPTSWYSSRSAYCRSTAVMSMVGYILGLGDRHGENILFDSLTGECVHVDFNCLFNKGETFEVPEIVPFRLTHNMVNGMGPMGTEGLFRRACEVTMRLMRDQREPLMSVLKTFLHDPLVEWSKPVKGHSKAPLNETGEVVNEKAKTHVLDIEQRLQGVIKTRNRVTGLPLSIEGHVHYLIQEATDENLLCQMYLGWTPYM

For `CN1CCC[C@@H](Oc2ncncc2NC(=O)c2c(N)nn3cc(F)cnc23)C1` [I-A-1, (R)-2-amino-6-fluoro-N-(4-((1-methylpiperidin-3-yl)oxy)pyrimidin-5-yl)pyrazolo[1,5-a]pyrimidine-3-carboxamide], in assay [1], the Ki was in the range of 1000 to 5000 nM. In assay [2], the “Cisplatin Sensitization Assay” value was “+ (Compounds with a Cisplatin sensitization value >0.2 μM but <5 μM are marked with “+.”)”.

For the compound `CN1CCC[C@H](Oc2ncncc2NC(=O)c2c(N)nn3cc(F)cnc23)C1` [I-A-2, (S)-2-amino-6-fluoro-N-(4-((1-methylpiperidin-3-yl)oxy)pyrimidin-5-yl)pyrazolo[1,5-a]pyrimidine-3-carboxamide], the Ki in assay [1] lay within 10 to 1000 nM. Moreover, the “Cisplatin Sensitization Assay” value in assay [2] is recorded as “+ (Compounds with a Cisplatin sensitization value >0.2 μM but <5 μM are marked with “+.”)”.

`Nc1nn2cc(F)cnc2c1C(=O)Nc1cncnc1O[C@H]1CN2CCC1CC2` [I-A-3, (R)-2-amino-6-fluoro-N-(4-(quinuclidin-3-yloxy)pyrimidin-5-yl)pyrazolo[1,5-a]pyrimidine-3-carboxamide]: in assay [1], the Ki lay in the range of 10 to 1000 nM. Besides, in assay [2], the “Cisplatin Sensitization Assay” value is “++ (Compounds with a Cisplatin sensitization value >0.02 μM but <0.2 μM are marked with “++.”)”.

Turning to `Nc1nn2cc(F)cnc2c1C(=O)Nc1cncnc1O[C@@H]1CN2CCC1CC2` [I-A-4, (S)-2-amino-6-fluoro-N-(4-(quinuclidin-3-yloxy)pyrimidin-5-yl)pyrazolo[1,5-a]pyrimidine-3-carboxamide], in assay [1], the Ki was 10 to 1000 nM. The “Cisplatin Sensitization Assay” value in assay [2] is “++ (Compounds with a Cisplatin sensitization value >0.02 μM but <0.2 μM are marked with “++.”)”.

On to `CN1CCC(Oc2ncncc2NC(=O)c2c(N)nn3cc(F)cnc23)CC1` [I-A-5, 2-amino-6-fluoro-N-(4-((1-methylpiperidin-4-yl)oxy)pyrimidin-5-yl)pyrazolo[1,5-a]pyrimidine-3-carboxamide], for which the Ki in assay [1] is 10 to 1000 nM. Further, the “Cisplatin Sensitization Assay” value in assay [2] was “++ (Compounds with a Cisplatin sensitization value >0.02 μM but <0.2 μM are marked with “++.”)”.

As to `CN1CCC(Oc2ncncc2NC(=O)c2c(N)nn3cc(Cl)cnc23)CC1` [I-A-6, 2-amino-6-chloro-N-(4-((1-methylpiperidin-4-yl)oxy)pyrimidin-5-yl)pyrazolo[1,5-a]pyrimidine-3-carboxamide], the Ki in assay [1] was in the range of 1000 to 5000 nM. The “Cisplatin Sensitization Assay” value in assay [2] is “++ (Compounds with a Cisplatin sensitization value >0.02 μM but <0.2 μM are marked with “++.”)”.

For `Nc1nn2cc(F)cnc2c1C(=O)Nc1cncnc1OC1CCN(C2COC2)CC1` [I-A-8, 2-amino-6-fluoro-N-(4-((1-(oxetan-3-yl)piperidin-4-yl)oxy)pyrimidin-5-yl)pyrazolo[1,5-a]pyrimidine-3-carboxamide], the Ki in assay [1] is 10 to 1000 nM. Also, the “Cisplatin Sensitization Assay” value in assay [2] is recorded as “+++ (Compounds with a Cisplatin sensitization value of <0.02 μM are marked with “+++.”)”.

Turning to `Nc1nn2cc(Cl)cnc2c1C(=O)Nc1cncnc1OC1CCN(C2COC2)CC1` [I-A-9, 2-amino-6-chloro-N-(4-((1-(oxetan-3-yl)piperidin-4-yl)oxy)pyrimidin-5-yl)pyrazolo[1,5-a]pyrimidine-3-carboxamide], the Ki in assay [1] was 1000 to 5000 nM. The “Cisplatin Sensitization Assay” value in assay [2] is listed as “+ (Compounds with a Cisplatin sensitization value >0.2 μM but <5 μM are marked with “+.”)”.

As to `CN1CC[C@@H](Oc2ncncc2NC(=O)c2c(N)nn3cc(F)cnc23)C1` [I-A-10, (R)-2-amino-6-fluoro-N-(4-((1-methylpyrrolidin-3-yl)oxy)pyrimidin-5-yl)pyrazolo[1,5-a]pyrimidine-3-carboxamide], the Ki in assay [1] is 10 to 1000 nM. For the same compound, in assay [2], the “Cisplatin Sensitization Assay” value is on record as “+ (Compounds with a Cisplatin sensitization value >0.2 μM but <5 μM are marked with “+.”)”.

With `CN1CC[C@H](Oc2ncncc2NC(=O)c2c(N)nn3cc(F)cnc23)C1` [I-A-11, (S)-2-amino-6-fluoro-N-(4-((1-methylpyrrolidin-3-yl)oxy)pyrimidin-5-yl)pyrazolo[1,5-a]pyrimidine-3-carboxamide], the Ki in assay [1] was 1000 to 5000 nM. For the same compound, the “Cisplatin Sensitization Assay” value in assay [2] is on record as “++ (Compounds with a Cisplatin sensitization value >0.02 μM but <0.2 μM are marked with “++.”)”.

Consider `CN(C)[C@H]1CC[C@H](Oc2ncncc2NC(=O)c2c(N)nn3cc(F)cnc23)CC1` [I-A-12, 2-amino-N-(4-(((1r,4r)-4-(dimethylamino)cyclohexyl)oxy)pyrimidin-5-yl)-6-fluoropyrazolo[1,5-a]pyrimidine-3-carboxamide], for which the Ki in assay [1] was 10 to 1000 nM. For the same compound, the “Cisplatin Sensitization Assay” value in assay [2] is “++ (Compounds with a Cisplatin sensitization value >0.02 μM but <0.2 μM are marked with “++.”)”.

As for `CN(C)[C@H]1CC[C@H](Oc2ncncc2NC(=O)c2c(N)nn3ccc(C(F)(F)F)nc23)CC1` [I-A-13, 2-amino-N-(4-(((1r,4r)-4-(dimethylamino)cyclohexyl)oxy)pyrimidin-5-yl)-5-(trifluoromethyl)pyrazolo[1,5-a]pyrimidine-3-carboxamide], the Ki in assay [1] was 10 to 1000 nM. Besides, in assay [2], the “Cisplatin Sensitization Assay” value is listed as “++ (Compounds with a Cisplatin sensitization value >0.02 μM but <0.2 μM are marked with “++.”)”.

Regarding `CC(C)Oc1ncncc1NC(=O)c1c(N)nn2cc(F)cnc12` [I-A-14, 2-amino-6-fluoro-N-(4-isopropoxypyrimidin-5-yl)pyrazolo[1,5-a]pyrimidine-3-carboxamide], in assay [1], the Ki lay in the range of 10 to 1000 nM. The “Cisplatin Sensitization Assay” value in assay [2] is “++ (Compounds with a Cisplatin sensitization value >0.02 μM but <0.2 μM are marked with “++.”)”.

As for `CC(C)Oc1ncncc1NC(=O)c1c(N)nn2ccc(OCCN(C)C)nc12` [I-A-15, 2-amino-5-(2-(dimethylamino)ethoxy)-N-(4-isopropoxypyrimidin-5-yl)pyrazolo[1,5-a]pyrimidine-3-carboxamide], the Ki in assay [1] was in the range of 1000 to 5000 nM. Further, the “Cisplatin Sensitization Assay” value in assay [2] is given as “+ (Compounds with a Cisplatin sensitization value >0.2 μM but <5 μM are marked with “+.”)”.

Consider `COc1ncncc1NC(=O)c1c(N)nn2ccc(OCCN(C)C)nc12` [I-A-16, 2-amino-5-(2-(dimethylamino)ethoxy)-N-(4-methoxypyrimidin-5-yl)pyrazolo[1,5-a]pyrimidine-3-carboxamide], for which the Ki in assay [1] lay within 1000 to 5000 nM. Further, the “Cisplatin Sensitization Assay” value in assay [2] is reported as “+ (Compounds with a Cisplatin sensitization value >0.2 μM but <5 μM are marked with “+.”)”.

As to `COc1ncncc1NC(=O)c1c(N)nn2cc(CC#N)cnc12` [I-A-17, 2-amino-6-(cyanomethyl)-N-(4-methoxypyrimidin-5-yl)pyrazolo[1,5-a]pyrimidine-3-carboxamide], the Ki in assay [1] was in the range of 10 to 1000 nM. For the same compound, the “Cisplatin Sensitization Assay” value in assay [2] is reported as “++ (Compounds with a Cisplatin sensitization value >0.02 μM but <0.2 μM are marked with “++.”)”.

Take `Nc1nn2cc(F)cnc2c1C(=O)Nc1cncnc1O[C@H]1C[C@]2(CCN2)C1` [I-A-18, N-(4-((4s,6r)-1-azaspiro[3.3]heptan-6-yloxy)pyrimidin-5-yl)-2-amino-6-fluoropyrazolo[1,5-a]pyrimidine-3-carboxamide]: the Ki in assay [1] was in the range of 1000 to 5000 nM. For the same compound, the “Cisplatin Sensitization Assay” value in assay [2] is on record as “+ (Compounds with a Cisplatin sensitization value >0.2 μM but <5 μM are marked with “+.”)”.

As for `CN1CCN(C(=O)C2CCN(c3ncncc3NC(=O)c3c(N)nn4cc(F)cnc34)CC2)CC1` [I-A-19, 2-amino-6-fluoro-N-(4-(4-(4-methylpiperazine-1-carbonyl)piperidin-1-yl)pyrimidin-5-yl)pyrazolo[1,5-a]pyrimidine-3-carboxamide], the Ki in assay [1] lay within 1000 to 5000 nM. The “Cisplatin Sensitization Assay” value in assay [2] is given as “+ (Compounds with a Cisplatin sensitization value >0.2 μM but <5 μM are marked with “+.”)”.

As to `Nc1nn2cc(F)cnc2c1C(=O)Nc1cnncc1N1CCCC1` [I-B-16, 2-amino-6-fluoro-N-(5-(pyrrolidin-1-yl)pyridazin-4-yl)pyrazolo[1,5-a]pyrimidine-3-carboxamide], the Ki in assay [1] fell in the range of 1000 to 5000 nM.

Turning to `CN1CCN(C2CCN(c3cnncc3NC(=O)c3c(N)nn4cc(F)cnc34)CC2)CC1` [I-B-24, 2-amino-6-fluoro-N-(5-(4-(4-methylpiperazin-1-yl)piperidin-1-yl)pyridazin-4-yl)pyrazolo[1,5-a]pyrimidine-3-carboxamide], the Ki in assay [1] lay in the range of 10 to 1000 nM.

In the case of `COc1cnccc1NC(=O)c1c(N)nn2ccc(C(F)(F)F)nc12` [I-C-4, 2-amino-N-(3-methoxypyridin-4-yl)-5-(trifluoromethyl)pyrazolo[1,5-a]pyrimidine-3-carboxamide], the Ki in assay [1] is 10 to 1000 nM.
